Experimental data as given in US7414173B1, “Isolated nucleic acid molecules encoding orally active androctonus amoreuxi pesticidal biopeptides” (E.I. du Pont de Nemours and Company, priority 2002, dated 2008).

B1: Ts7: polypeptide set forth in SEQ ID NO:22 and 24, identified from a Centruroides vittatus telsons cDNA library (protein)
chain 1: MKFFLIVSLAIMSCFMEMKEVYAGTKGNFPVDFQGIFYECIVYNRCERDCKLHGSSYGYCYAGVCYCEGLADEDKYFLGM
chain 2: GTKGNFPVDFQGIFYECIVYNRCERDCKLHGSSYGYCYAGVCYCEGLADEDKYFLGM

Experiments:
[1] = test system: corn plant hopper Perigrinus maidis; experiment: Screening of Androctonus amoreuxi venom fractions for Homopteran activity; type: in vivo; details: HPLC fractions of venom
Method: This assay can be used for a variety of homopterans including, but not limited to, Myzus persicae and Perigrinus maidis. The assay involves trapping the sample between two layers of maximally stretched parafilm which act as a sachet on top of a small vessel containing the insect of choice.
The assay was prepared as follows: 1 cm diameter polystyrene tubing was cut into 15 mm lengths. One end of the tube was then capped with a fine mesh screen. Five insects were then added to the chamber after which the first layer of parafilm was stretched over the remaining open end. 25 μl of sample (polypeptide in a 5% sucrose solution containing McCormick green food coloring) was then placed on top of the stretched parafilm. A second layer of parafilm was then stretched by hand and placed over the sample. […] The assay tubes were monitored for insect reproduction and death on a 24 hour basis and compared to a 5% sucrose control.
Initial screening of five minute fractions of the venom from Androctonus amoreuxi indicated activity against the corn plant hopper Perigrinus maidis. […] Sufficient quantities of this purified protein were collected to allow confirmation of activity and to initiate protein sequencing by Edmund degradation as described in Example 2. The mature sequence was determined to be that indicated in SEQ ID NO:20. […]

[2] = test system: embryonic neuronal cultures of the American cockroach Periplaneta americana; experiment: Fluorescence imaging ratiometric assay; type: cell-based; details: Fluo-4 AM loaded neuronal cells
Text: Embryonic neuronal cultures of the American cockroach Periplaneta americana were established following the method of Beadle and Lees (See Beadle D. J. and Lees G., Chapter 5 in Cell Culture Approaches to Invertebrate Neuroscience, Beadle, D. J., Lees, G. and Kater, S. B. (eds.) Academic Press, New York 1988) with minor modification. Briefly, 24-day old oothecae were collected, surface-sterilized and cut open one third below the dorsal midline. The heads were then removed and placed in Schneider's Drosophila medium. Using fine forceps 32 brains were individually removed and placed in a small glass vial containing 790 μl of ‘5+4’ medium. […]
Cells were rinsed in standard physiological saline having the following composition (mM): NaCl 190; CaCl2 9; KCl 3.1; probenicid 1; Tris buffer 10; pH 7.2. […] Individual wells from the 96-well plate were sequentially excited with light at 495 nm and the emitted fluorescence at 530 nm detected using a Hamamatsu ORCA ER digital camera.
Acquisition control, image processing and image analysis were conducted using Universal Imaging Corporation's MetaMorph™ imaging software. […] Individual cells were separated and identified based on meeting designated morphometric criteria for total size and shape as previously determined experimentally for this cell type. […]

[3] = test system: Myzus persicae (Green Peach Aphid); experiment: Aphid bioassay on transgenic Arabidopsis thaliana events; type: in vivo; details: 35S promoter, versus controls
Text: cDNAs encoding potential sodium channel neurotoxins were identified from sequence data derived from a cDNA library of Centruroides vittatus telsons. […] Full length genes were PCR amplified with oligonucleotide primers introducing restriction enzyme sites at the 5′ and 3′ ends of the gene. The PCR products were TOPO-cloned into pCR2.1 (Invitrogen Co.) and the sequence was confirmed. The resulting constructs were then cloned into a binary vector between the Cauliflower mosaic virus 35S promoter and the NOS termination signal. The binary vector also contained a selection marker cassette including the Cauliflower mosaic 35S promoter, the BAR gene, and NOS terminator.
Binary constructs were electroporated into Agrobacterium tumefaciens strain C58. Transformed Agrobacterium cultures were grown in YM media for 2 days at 28° C. to an OD600 of approximately 1.0. Cells were pelleted by centrifugation and resuspended at the original culture volume in 5% sucrose with 0.05% Silwet L-77. The Agrobacterium slurry was sprinkled onto the inflorescences of flowering Arabidopsis thaliana (Landberg) plants using a 10-25 ml pipette. […]
Bioassays were performed on individual transformation events enclosed within plastic tubes with a fine mesh screen at the top to confine the aphids. […] Plants were scored for total number of adult aphids and nymphs at various intervals post infestation.

Molecule | activity against the corn plant hopper Perigrinus maidis (Homopteran activity) [1] | changes in Fluo-4 fluorescence (intracellular free calcium) [2] | aphid resistance (total number of adult aphids and nymphs) [3]
Aam1 (ADVPGNYPLDSSDNTYLCAPLGDNPDCIKICQKHGVDYGYCYAFQCWCEFLKDENVKV) | Homopteran activity was then found to be associated | changes in fluorescence characteristic of a sodium channel agonist | 
B1 |  |  | greater degree of aphid resistance than controls
